Measured values reported in patent US9765069B2, “Antimicrobial compounds” (OXFORD UNIVERSITY INNOVATION LIMITED, priority 2012, dated 2017).
Converted amounts (≈) assume the structure as drawn.

Columns and labels:
[1] = system: S4; assay: MIC determination (bacteria), strain S4; type: cell-based, S. aureus; conditions: 2-fold broth dilution
Description: (§1) MIC determination (bacteria); MICs were determined based on Clinical and Laboratory Standards Institute (CLSI) methodology (Methods for dilution antimicrobial susceptibility tests for bacteria that grow aerobically; Approved Standard—seventh edition. 2006, M7-A7, CLSI, Wayne Pa.) by a 2-fold broth dilution technique in Mueller Hinton (pH7.4 Biorad). For S. pneumoniae, the medium was supplemented with 2.5% laked horse blood. For H. influenzae, the medium was haemophilus test medium (H.T.M.). Overnight cultures were diluted to obtain the final inoculum of 10^5 cfu/well. Incubation was 37° C. overnight in ambient air. The MIC was defined as the lowest concentration which inhibited all visual growth and expressed in μg/ml. For each bacterial species, all of the molecules were tested in the same experiment in order to give a head-to-head comparison.

[2] = system: human embryonic kidney 293 cells; assay: in vitro toxicities against human embryonic kidney 293 cells; type: cell-based; conditions: human embryonic kidney 293 cells
Description: (§2) These properties can be determined according to techniques that are well known in the art.

[3] = system: S1; assay: MIC determination (bacteria), strain S1; type: cell-based, S. aureus; conditions: 2-fold broth dilution
Description: as §1

[4] = system: E1; assay: MIC determination (bacteria), strain E1; type: cell-based, enterococcus; conditions: 2-fold broth dilution
Description: as §1

[5] = system: P9; assay: MIC determination (bacteria), strain P9; type: cell-based, S. pneumoniae; conditions: 2-fold broth dilution
Description: as §1

[6] = system: E2; assay: MIC determination (bacteria), strain E2; type: cell-based, enterococcus; conditions: 2-fold broth dilution
Description: as §1

[7] = system: P9B; assay: MIC determination (bacteria), strain P9B; type: cell-based, S. pneumoniae; conditions: 2-fold broth dilution
Description: as §1

[8] = system: S2 (S. aureus 2, MRSA in vivo); assay: MIC determination (bacteria), strain S2; type: cell-based; conditions: 2-fold broth dilution
Description: as §1

[9] = system: mammalian_red blood cell membrane; assay: In vitro mammalian red blood cell membrane lysis activity; type: cell-based; conditions: Active or inactive at 100 μM
Description: as §2

[10] = system: human peripheral blood cells; assay: in vitro toxicities human peripheral blood cells; type: cell-based; conditions: human peripheral blood cells
Description: as §2

[11] = system: H3; assay: MIC determination (bacteria), strain H3; type: cell-based, H. influenzae; conditions: haemophilus test medium
Description: as §1

[12] = system: S. aureus membrane; assay: In vitro activity in depolarization of S. aureus membrane; type: cell-based; conditions: read-out: DEP (IC50)
Description: as §2

[13] = system: P1; assay: MIC determination (bacteria), strain P1; type: cell-based, S. pneumoniae; conditions: 2-fold broth dilution
Description: as §1

[14] = target: E. Coli RNAP (Escherichia coli, UniProt P0A8T7+P0A8V2); assay: In vitro activity against E. Coli RNAP; type: biochemical
Chain of E. Coli RNAP (P0A8V2 whole entry): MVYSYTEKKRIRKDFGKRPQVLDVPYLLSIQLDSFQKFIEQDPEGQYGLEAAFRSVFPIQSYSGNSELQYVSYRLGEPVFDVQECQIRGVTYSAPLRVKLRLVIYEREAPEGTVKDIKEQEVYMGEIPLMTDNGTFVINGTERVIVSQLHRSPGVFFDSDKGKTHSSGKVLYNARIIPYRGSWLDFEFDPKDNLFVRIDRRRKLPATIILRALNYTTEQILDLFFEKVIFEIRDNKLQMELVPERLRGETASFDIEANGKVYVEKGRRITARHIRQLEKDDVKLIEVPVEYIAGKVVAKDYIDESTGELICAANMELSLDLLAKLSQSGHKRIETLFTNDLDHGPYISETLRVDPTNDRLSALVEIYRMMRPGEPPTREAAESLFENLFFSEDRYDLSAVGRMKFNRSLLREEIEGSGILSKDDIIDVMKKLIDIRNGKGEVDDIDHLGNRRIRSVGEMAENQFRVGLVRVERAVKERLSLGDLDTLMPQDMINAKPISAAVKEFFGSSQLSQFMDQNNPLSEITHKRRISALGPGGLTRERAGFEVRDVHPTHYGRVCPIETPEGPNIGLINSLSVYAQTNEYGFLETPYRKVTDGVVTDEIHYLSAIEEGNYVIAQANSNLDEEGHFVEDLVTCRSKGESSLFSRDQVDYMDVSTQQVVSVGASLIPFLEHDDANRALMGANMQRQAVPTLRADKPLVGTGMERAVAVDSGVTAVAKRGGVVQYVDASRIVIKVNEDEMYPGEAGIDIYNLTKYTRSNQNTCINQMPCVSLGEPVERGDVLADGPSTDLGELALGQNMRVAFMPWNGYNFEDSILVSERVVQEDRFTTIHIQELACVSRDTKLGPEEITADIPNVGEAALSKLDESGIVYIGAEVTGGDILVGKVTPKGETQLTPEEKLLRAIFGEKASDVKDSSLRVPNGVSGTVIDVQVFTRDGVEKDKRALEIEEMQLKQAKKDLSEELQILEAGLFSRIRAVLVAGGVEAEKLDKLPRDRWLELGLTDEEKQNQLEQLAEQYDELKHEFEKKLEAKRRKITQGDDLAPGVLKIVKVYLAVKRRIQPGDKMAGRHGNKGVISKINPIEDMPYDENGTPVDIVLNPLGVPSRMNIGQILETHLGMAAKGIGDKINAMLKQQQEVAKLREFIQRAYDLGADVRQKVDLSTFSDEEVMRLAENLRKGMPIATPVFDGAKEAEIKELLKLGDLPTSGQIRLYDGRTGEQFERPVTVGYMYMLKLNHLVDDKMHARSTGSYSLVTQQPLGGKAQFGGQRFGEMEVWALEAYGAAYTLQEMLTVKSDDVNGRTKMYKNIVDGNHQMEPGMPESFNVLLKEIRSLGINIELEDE
Chain of E. Coli RNAP (P0A8T7 whole entry): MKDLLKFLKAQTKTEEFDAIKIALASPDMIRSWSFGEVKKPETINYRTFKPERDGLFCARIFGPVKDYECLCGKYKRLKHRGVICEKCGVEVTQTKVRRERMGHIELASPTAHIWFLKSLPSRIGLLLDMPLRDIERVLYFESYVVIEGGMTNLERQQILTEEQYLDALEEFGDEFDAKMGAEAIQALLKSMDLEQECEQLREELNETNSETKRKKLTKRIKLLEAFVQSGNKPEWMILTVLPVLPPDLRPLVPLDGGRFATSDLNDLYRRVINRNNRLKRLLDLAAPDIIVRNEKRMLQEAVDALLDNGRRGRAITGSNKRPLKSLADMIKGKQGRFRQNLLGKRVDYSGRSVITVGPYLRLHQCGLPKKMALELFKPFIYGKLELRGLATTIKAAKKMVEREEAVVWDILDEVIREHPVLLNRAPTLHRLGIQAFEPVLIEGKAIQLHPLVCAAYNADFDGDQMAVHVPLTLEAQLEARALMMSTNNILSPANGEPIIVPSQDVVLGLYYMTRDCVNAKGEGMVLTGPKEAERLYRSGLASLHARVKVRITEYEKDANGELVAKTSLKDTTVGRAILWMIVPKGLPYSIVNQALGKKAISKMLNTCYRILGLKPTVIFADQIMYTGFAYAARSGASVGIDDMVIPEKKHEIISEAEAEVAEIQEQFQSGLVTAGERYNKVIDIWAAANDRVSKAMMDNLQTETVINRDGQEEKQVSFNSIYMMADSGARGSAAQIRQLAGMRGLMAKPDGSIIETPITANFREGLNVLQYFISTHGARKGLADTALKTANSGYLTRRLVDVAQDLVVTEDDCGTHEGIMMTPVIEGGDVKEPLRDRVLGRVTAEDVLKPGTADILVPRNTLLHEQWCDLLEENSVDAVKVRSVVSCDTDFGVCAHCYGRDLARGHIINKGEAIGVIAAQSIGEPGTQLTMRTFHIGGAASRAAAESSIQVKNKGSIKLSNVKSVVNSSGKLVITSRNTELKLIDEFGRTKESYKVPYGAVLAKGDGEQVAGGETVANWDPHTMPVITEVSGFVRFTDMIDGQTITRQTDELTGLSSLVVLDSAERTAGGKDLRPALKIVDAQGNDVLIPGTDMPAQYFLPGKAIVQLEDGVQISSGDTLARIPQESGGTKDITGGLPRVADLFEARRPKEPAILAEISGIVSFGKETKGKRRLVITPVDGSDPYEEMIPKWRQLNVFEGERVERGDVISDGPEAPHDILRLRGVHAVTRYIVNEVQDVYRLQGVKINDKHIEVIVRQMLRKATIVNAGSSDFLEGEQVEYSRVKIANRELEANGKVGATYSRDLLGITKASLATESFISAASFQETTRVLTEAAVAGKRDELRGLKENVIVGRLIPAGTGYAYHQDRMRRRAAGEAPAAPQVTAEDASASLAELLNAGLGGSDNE
Chain of E. Coli RNAP (P0A7Z4 whole entry partner): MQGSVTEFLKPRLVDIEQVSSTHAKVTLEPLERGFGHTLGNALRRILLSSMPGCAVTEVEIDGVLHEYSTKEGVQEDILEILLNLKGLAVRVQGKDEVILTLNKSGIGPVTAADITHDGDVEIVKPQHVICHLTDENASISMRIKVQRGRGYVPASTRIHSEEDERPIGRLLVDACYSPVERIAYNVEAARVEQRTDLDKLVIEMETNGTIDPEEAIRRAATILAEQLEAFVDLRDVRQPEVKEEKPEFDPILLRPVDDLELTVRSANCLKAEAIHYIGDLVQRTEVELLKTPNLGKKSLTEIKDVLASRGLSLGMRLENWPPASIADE
Chain of E. Coli RNAP (P0A800 whole entry partner): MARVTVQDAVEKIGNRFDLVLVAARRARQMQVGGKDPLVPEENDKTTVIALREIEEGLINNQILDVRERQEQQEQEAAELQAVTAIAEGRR
Description: as §2

[15] = aqueous solubility at pH 7.4; type: physicochemical; conditions: aqueous solubility at pH 7.4 (water with 2% DMSO)
Description: as §2

[16] = system: S26; assay: MIC determination (bacteria), strain S26; type: cell-based, S. aureus; conditions: 2-fold broth dilution
Description: as §1

[17] = system: H4; assay: MIC determination (bacteria), strain H4; type: cell-based, H. influenzae; conditions: haemophilus test medium
Description: as §1

SMILES | MIC S4 ([1]; Table 1) | Hek293 (LD50, μM) [2] | MIC S1 ([3]; Table 1) | MIC E1 ([4]; Table 1) | RBC membrane lysis activity (active/inactive) [9] | PMBC (LD50, μM) [10] | IC50 [12] | IC50 [14] | SOL [15] | MIC S4 ([1]; Table 2) | MIC S1 ([3]; Table 2) | MIC E1 ([4]; Table 2) | MIC P9 ([5]; Table 2) | MIC E2 ([6]; Table 2) | MIC P9B ([7]; Table 2) | MIC S2 ([8]; Table 2) | MIC H3 ([11]; Table 2) | MIC P1 ([13]; Table 2) | MIC S26 ([16]; Table 2) | MIC H4 ([17]; Table 2 and its footnote f) | further results
CCCCCCCCCC(O)=C1C(=O)CCN(C(=O)c2ccccc2)C1=O [25a] | 2 µg/mL (≈ 5.38 µM) | >90.9 µM | 2 µg/mL (≈ 5.38 µM) | 2 µg/mL (≈ 5.38 µM) | Inactive^d | >90.9 µM | 83.6 µM | > 100 µM | >300 µM | – | – | – | – | – | – | – | – | – | – | – | MIC P9 ([5]; Table 1): 0.5 µg/mL (≈ 1.35 µM); MIC E2 ([6]; Table 1): 4 µg/mL (≈ 10.8 µM); MIC P9B ([7]; Table 1): 4 µg/mL (≈ 10.8 µM); MIC S2 ([8]; Table 1): 4 µg/mL (≈ 10.8 µM); MIC H3 ([11]; Table 1): 16 µg/mL (≈ 43.1 µM); MIC P1 ([13]; Table 1): 0.5 µg/mL (≈ 1.35 µM); MIC S26 ([16]; Table 1): 4 µg/mL (≈ 10.8 µM); MIC H4 ([17]; Table 1): 8 µg/mL (≈ 21.5 µM)
CCCCCCCCCCCC(O)=C1C(=O)CCN(C(=O)c2ccccc2)C1=O [25b] | 0.5 µg/mL (≈ 1.25 µM) | >90.9 µM | 0.5 µg/mL (≈ 1.25 µM) | 0.25 µg/mL (≈ 0.626 µM) | Inactive^d | >90.9 µM | 94.4 µM | 86 µM | >300 µM | – | – | – | – | – | – | – | – | – | – | – | MIC P9 ([5]; Table 1): 0.25 µg/mL (≈ 0.626 µM); MIC E2 ([6]; Table 1): 0.5 µg/mL (≈ 1.25 µM); MIC P9B ([7]; Table 1): 1 µg/mL (≈ 2.5 µM); MIC S2 ([8]; Table 1): 0.5 µg/mL (≈ 1.25 µM); MIC H3 ([11]; Table 1): 8 µg/mL (≈ 20 µM); MIC P1 ([13]; Table 1): 0.25 µg/mL (≈ 0.626 µM); MIC S26 ([16]; Table 1): 1 µg/mL (≈ 2.5 µM); MIC H4 ([17]; Table 1): 4 µg/mL (≈ 10 µM)
CCCCCCCCCC(O)=C1C(=O)CCN(C(=O)c2ccc(OC)cc2)C1=O [25d] | 4 µg/mL (≈ 9.96 µM) | 90.9 µM | 8 µg/mL (≈ 19.9 µM) | 4 µg/mL (≈ 9.96 µM) | Active | 90.9 µM | 69 µM | – | 150 to 300 µM | – | – | – | – | – | – | – | – | – | – | – | MIC P9 ([5]; Table 1): 2 µg/mL (≈ 4.98 µM); MIC E2 ([6]; Table 1): 4 µg/mL (≈ 9.96 µM); MIC P9B ([7]; Table 1): 8 µg/mL (≈ 19.9 µM); MIC S2 ([8]; Table 1): 4 µg/mL (≈ 9.96 µM); MIC H3 ([11]; Table 1): 64 µg/mL (≈ 159 µM); MIC P1 ([13]; Table 1): 2 µg/mL (≈ 4.98 µM); MIC S26 ([16]; Table 1): 8 µg/mL (≈ 19.9 µM); MIC H4 ([17]; Table 1): 8 µg/mL (≈ 19.9 µM)
CCCCCCC(=O)N1CC(=O)C(=C(O)CCCC2CCCCC2)C1=O [27c] | – | 30.3 µM | – | – | – | 90.9 µM | > 100 µM | > 100 µM | >200 µM | 0.5 µg/mL (≈ 1.38 µM) | 0.25 µg/mL (≈ 0.688 µM) | 0.5 µg/mL (≈ 1.38 µM) | <0.06 µg/mL | 0.12 µg/mL (≈ 0.33 µM) | 2 µg/mL (≈ 5.5 µM) | 1 µg/mL (≈ 2.75 µM) | 2 µg/mL (≈ 5.5 µM) | 0.12 µg/mL (≈ 0.33 µM) | 1 µg/mL (≈ 2.75 µM) | 1 µg/mL (≈ 2.75 µM) | –
CCCCCCC(=O)N1CC(=O)C(=C(O)CC(C)CC(C)(C)C)C1=O (centres unmarked) [27h] | – | 30.3 µM | – | – | – | 90.9 µM | – | > 100 µM | 150 to 300 µM | 0.5 µg/mL (≈ 1.42 µM) | 0.25 µg/mL (≈ 0.711 µM) | 0.25 µg/mL (≈ 0.711 µM) | <0.06 µg/mL | 0.25 µg/mL (≈ 0.711 µM) | 1 µg/mL (≈ 2.85 µM) | 0.5 µg/mL (≈ 1.42 µM) | 2 µg/mL (≈ 5.69 µM) | <0.06 µg/mL | 0.5 µg/mL (≈ 1.42 µM) | 2 µg/mL (≈ 5.69 µM) | –
CCCCCCC(=O)N1CC(=O)C(=C(O)CCCOc2ccc(Cl)cc2C)C1=O [28h] | – | 30.3 µM | – | – | – | 90.9 µM | – | 33 µM | >300 µM | 4 µg/mL (≈ 9.48 µM) | 1 µg/mL (≈ 2.37 µM) | 0.5 µg/mL (≈ 1.19 µM) | 0.5 µg/mL (≈ 1.19 µM) | 0.5 µg/mL (≈ 1.19 µM) | 4 µg/mL (≈ 9.48 µM) | 2 µg/mL (≈ 4.74 µM) | 8 µg/mL (≈ 19 µM) | 0.5 µg/mL (≈ 1.19 µM) | 4 µg/mL (≈ 9.48 µM) | 4 µg/mL (≈ 9.48 µM) | –
CC(C)CC1C(=O)C(=C(O)CCCCCc2ccccc2)C(=O)N1C(=O)c1ccccc1 (centres unmarked) [30a] | – | >90.9 µM | – | – | Inactive^d | 90.9 µM | > 100 µM | – | >300 µM | 2 µg/mL (≈ 4.61 µM) | 2 µg/mL (≈ 4.61 µM) | 2 µg/mL (≈ 4.61 µM) | 1 µg/mL (≈ 2.31 µM) | 2 µg/mL (≈ 4.61 µM) | 4 µg/mL (≈ 9.23 µM) | 2 µg/mL (≈ 4.61 µM) | >64 µg/mL | 1 µg/mL (≈ 2.31 µM) | 4 µg/mL (≈ 9.23 µM) | 8 µg/mL (≈ 18.5 µM) | –
CNC(=O)[C@@H](C)[C@H]1C(=O)/C(=C(O)/C=C/C(C)=C/[C@@H](C)[C@H]2O[C@@]3(C)O[C@H](C=C[C@@]34CO4)[C@@H]2C)C(=O)N1[C@@H]1CC[C@H](O)[C@H](C)O1 [streptolydigin, reference compound] | – | – | – | – | – | – | – | 38 µM | – | – | – | – | – | – | – | – | – | – | – | – | –
